Paper PMC11558128 (Advanced Science, 2024)
Positions of bridges follow the written chain, without caps; N, C: chain ends. Residues, ends and D or L forms follow the SMILES beside them.

Assays:
rKv4.2 D284K = molecular target: T1, rKv4.2 D284K (Rattus norvegicus, UniProt Q63881, D284K); assay: cell-based; details: mean ± SEM
T1 construct: expressed in transfected cells; host or cells: HEK293T
T1 sequence (Q63881 1-630 D284K): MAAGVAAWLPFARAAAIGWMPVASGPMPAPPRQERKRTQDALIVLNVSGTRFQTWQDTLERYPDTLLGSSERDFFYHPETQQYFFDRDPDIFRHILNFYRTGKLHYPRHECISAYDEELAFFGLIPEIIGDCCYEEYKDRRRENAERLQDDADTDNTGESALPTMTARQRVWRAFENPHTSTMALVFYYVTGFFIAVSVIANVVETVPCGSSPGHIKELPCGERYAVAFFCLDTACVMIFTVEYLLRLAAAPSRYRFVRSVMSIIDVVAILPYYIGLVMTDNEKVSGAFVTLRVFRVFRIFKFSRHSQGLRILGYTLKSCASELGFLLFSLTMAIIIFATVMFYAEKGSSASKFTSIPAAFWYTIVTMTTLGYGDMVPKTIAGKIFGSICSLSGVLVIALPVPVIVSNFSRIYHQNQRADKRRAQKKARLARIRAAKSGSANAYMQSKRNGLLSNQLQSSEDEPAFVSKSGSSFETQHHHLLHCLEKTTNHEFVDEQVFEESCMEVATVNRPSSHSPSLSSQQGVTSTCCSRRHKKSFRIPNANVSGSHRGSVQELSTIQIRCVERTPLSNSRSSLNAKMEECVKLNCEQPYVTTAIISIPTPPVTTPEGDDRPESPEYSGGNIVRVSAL

ICR mice [1] = assay: Surface electrocardiogram (ECG) recording in ICR mice; format: in vivo, mouse
Protocol: Surface Electrocardiographic (ECG) Recording: ICR mice (weight 18–20 g, 6–8 weeks, both sex) were lightly anesthetized with 3% halothane for Surface electrocardiograms (ECG), which were recorded by placing dry electrodes carefully wrapped around each of the mouse's four limbs. The data of physiological effects of intravenous administration of 0.3 mg kg^−1 mGpTx1 (4 males and 4 females) or 2 mg kg^−1 mGpTx1‐SA (3 males and 2 females) for 5 min were collected by PowerLab 2/28 and LabChart 8 (AD Instruments, Bella Vista, Australia) and analyzed standard ECG parameters by along with its accompanying ECG analysis plug‐in. For each mouse, the data of 8 cardiac cycles before and after administration were averaged for analysis.

ICR mice [2] = assay: Forced swimming test; format: in vivo, mouse; details: 2 mg kg-1 i.p.; vs saline; n = 5, p = 0.8413
Protocol: Forced Swimming Test: ICR mice (weight 18–20 g, 6–8 weeks, both sex) were subjected to forced swimming training for 8 min per day over a span of 4 days. […] On the 5th day, the remaining mice were randomly assigned to one of two groups: Saline (3 males and 2 females) and the 2 mg kg^−1 mGpTx1‐SA (3 males and 2 females). All groups received intraperitoneal administration and were allowed 20 min for the drug to take effect before behavioral tests commenced. Swimming time was recorded for a duration of 4 min within a 6‐minute timeframe following drug administration.

ICR mice [3] = assay: Small intestinal propulsion test; format: in vivo, mouse; details: 2 mg kg-1 i.p.; vs saline; n = 4, p = 0.3429
Protocol: Small Intestinal Propulsion Test: ICR mice (weight 18–20 g, 6–8 weeks, both sex) were subjected to a 24‐hour fasting period to ensure gastrointestinal emptying. Subsequently, the mice were randomly assigned to one of two groups: Saline (2 males and 2 females) and 2 mg kg^−1 mGpTx1‐SA (2 males and 2 females). All groups received intraperitoneal administration of their respective substances and were allowed 20 minutes for the drugs to take effect. Following drug administration, each mouse received a pre‐prepared nutritive semi‐solid paste (10 g of sodium carboxymethylcellulose, 16 g of milk powder, 8 g of sucrose, 8 g of starch, and 5 g of activated charcoal, stirred well in 250 mL of ddH2O) via gavage (0.5 mL per 20 g). After 20 min, the mice were euthanized, and their small intestines were carefully removed. The distance from the pylorus to the ileum was measured along the full length of the small intestine. Additionally, the distance from the pylorus to the front of the black semi‐solid paste was measured. Small intestinal propulsion rate (%) = length of carbon paste propulsion (cm) × 100% / total length of small intestine (cm).

[4] = test system: acutely isolated rat cardiomyocytes; details: 5 µM; for effect on action potential duration (APD): n = 5-6
[5] = test system: native Kv channels of rat primary cardiomyocytes; details: 5 µM; n = 5
[6] = test system: native Nav channels of rat primary cardiomyocytes; details: 5 µM; n = 5

CC[C@H](C)[C@H](NC(=O)[C@H](CCC(=O)O)NC(=O)[C@H](Cc1ccc(O)cc1)NC(=O)[C@H](CCCCN)NC(=O)[C@@H]1CSSC[C@@H]2NC(=O)[C@H](CCC(N)=O)NC(=O)[C@H](CC(=O)O)NC(=O)[C@H](CC(N)=O)NC(=O)[C@H](CO)NC(=O)[C@@H]3CCCN3C(=O)[C@H](CC(N)=O)NC(=O)[C@@H]3CSSC[C@H](NC(=O)[C@H](C(C)C)NC(=O)[C@H](CC(C)C)NC(=O)[C@H](CC(N)=O)NC(=O)[C@H](CO)NC(=O)[C@H](CO)NC(=O)[C@H](CCCCN)NC(=O)[C@H](CSSC[C@H](NC(=O)[C@@H](N)CCC(=O)O)C(=O)N[C@@H](CC(C)C)C(=O)NCC(=O)N[C@@H](Cc4ccccc4)C(=O)NCC(=O)N[C@@H](CCCCN)C(=O)NCC(=O)N3)NC2=O)C(=O)N[C@@H](CO)C(=O)N[C@@H](CCCNC(=N)N)C(=O)N[C@@H](CCCCN)C(=O)N[C@@H](Cc2c[nH]cn2)C(=O)N[C@@H](CCCNC(=N)N)C(=O)N[C@@H](Cc2c[nH]c3ccccc23)C(=O)N1)C(N)=O [HNTX-IV]
IC50 (rKv4.2 D284K): > 20000 nM

CC(C)C[C@@H]1NC(=O)[C@H](Cc2c[nH]c3ccccc23)NC(=O)[C@H](Cc2ccc(O)cc2)NC(=O)[C@H](CCCNC(=N)N)NC(=O)[C@@H](NC(=O)[C@@H](N)CCC(=O)O)CSSC[C@@H]2NC(=O)[C@@H]3CSSC[C@@H](C(=O)N[C@H](C(=O)N[C@@H](Cc4c[nH]c5ccccc45)C(=O)N[C@@H](CC(=O)O)C(=O)N[C@@H](Cc4c[nH]c5ccccc45)C(=O)N[C@H](C(=O)N[C@@H](Cc4ccccc4)C(N)=O)[C@@H](C)O)C(C)C)NC(=O)[C@H](Cc4c[nH]c5ccccc45)NC(=O)CNC(=O)[C@H](Cc4c[nH]cn4)NC(=O)[C@H](CCCCN)NC(=O)[C@@H]4CCCN4C(=O)[C@H](CO)NC(=O)[C@H](CSSC[C@H](NC(=O)[C@H]([C@@H](C)O)NC(=O)CNC1=O)C(=O)N[C@@H](CO)C(=O)N[C@@H](CCCCN)C(=O)N[C@@H]([C@@H](C)O)C(=O)NCC(=O)N[C@@H](CC(=O)O)C(=O)N3)NC(=O)[C@H](CO)NC(=O)[C@H](CC(C)C)NC(=O)[C@H](Cc1c[nH]cn1)NC(=O)[C@H](CO)NC2=O [HNTX-VIIa] (H-ECRYWLGTCSKTGDCCSHLSCSPKHGWCVWDWTF-NH2; disulfide 2-16, 9-21, 15-28)
IC50 (rKv4.2 D284K; SEM): 47 ± 6 nM

CC[C@H](C)[C@@H]1NC(=O)[C@@H]2CSSC[C@@H]3NC(=O)[C@H](C(C)C)NC(=O)[C@H](CC(C)C)NC(=O)[C@H](CC(N)=O)NC(=O)[C@@H]4CCCN4C(=O)[C@H](CCCNC(=N)N)NC(=O)[C@H](CSSC[C@H](NC(=O)[C@@H](N)CC(=O)O)C(=O)N[C@@H](CC(C)C)C(=O)NCC(=O)N[C@@H](C)C(=O)N[C@@H](Cc4ccccc4)C(=O)N[C@@H](CCCNC(=N)N)C(=O)N[C@@H](CCCCN)C(=O)N2)NC(=O)[C@H](CSSC[C@@H](C(=O)N[C@@H](CCCCN)C(=O)N[C@@H](Cc2ccc(O)cc2)C(=O)N[C@H](C(=O)N[C@@H](Cc2ccccc2)C(N)=O)C(C)C)NC(=O)[C@H](Cc2c[nH]c4ccccc24)NC(=O)[C@H](CCCNC(=N)N)NC(=O)[C@H](Cc2c[nH]cn2)NC(=O)[C@H](C)NC(=O)[C@H](CO)NC(=O)[C@H](CO)NC3=O)NC(=O)[C@H](CCCCN)NC(=O)[C@H](CC(=O)O)NC(=O)[C@H](CC(N)=O)NC(=O)[C@H](CC(=O)O)NC(=O)[C@@H]2CCCN2C1=O [mGpTx1-SA] (H-DCLGAFRKCIPDNDKCCRPNLVCSSAHRWCKYVF-NH2; disulfide 2-17, 9-23, 16-30)
RR interval (ICR mice [1]; 2 mg kg-1, tail vein, control 0.13 ± 0.01 s, n = 5, p = 0.3229): 0.13 ± 0.01 s | heart rate (ICR mice [1]; 2 mg kg-1, tail vein, control 478.2 ± 24.3, n = 5, p = 0.8856): 475.3 ± 24.7 | effect on the ECGs (ICR mice [1]; 2 mg kg-1, tail vein, n = 5): no effect | time spent on swimming (ICR mice [2]): did not affect | small intestinal propulsion (ICR mice [3]): no effect | effect on AP amplitude [4]: no significant changes | effect on resting membrane potential (RMP) [4]: no significant changes | effect on action potential duration (APD) [4]: no effect | inhibition of Kv currents in the primary cardiomyocytes [5]: did not inhibit | inhibition of Nav currents in the primary cardiomyocytes [6]: did not inhibit

CC[C@H](C)[C@@H]1NC(=O)[C@@H]2CSSC[C@@H]3NC(=O)[C@H](C(C)C)NC(=O)[C@H](CC(C)C)NC(=O)[C@H](CC(N)=O)NC(=O)[C@@H]4CCCN4C(=O)[C@H](CCCNC(=N)N)NC(=O)[C@H](CSSC[C@H](NC(=O)[C@@H](N)CC(=O)O)C(=O)N[C@@H](CC(C)C)C(=O)NCC(=O)N[C@@H](C)C(=O)N[C@@H](Cc4ccccc4)C(=O)N[C@@H](CCCNC(=N)N)C(=O)N[C@@H](CCCCN)C(=O)N2)NC(=O)[C@H](CSSC[C@@H](C(=O)N[C@@H](CCCCN)C(=O)N[C@@H](Cc2ccc(O)cc2)C(=O)N[C@H](C(=O)N[C@@H](Cc2ccccc2)C(N)=O)C(C)C)NC(=O)[C@H](Cc2c[nH]c4ccccc24)NC(=O)[C@H](CCCNC(=N)N)NC(=O)[C@H](Cc2cnc[nH]2)NC(=O)[C@H](CC(C)C)NC(=O)[C@H](CCCNC(=N)N)NC(=O)[C@H](CO)NC3=O)NC(=O)[C@H](CCCCN)NC(=O)[C@H](CC(=O)O)NC(=O)[C@H](CC(N)=O)NC(=O)[C@H](CC(=O)O)NC(=O)[C@@H]2CCCN2C1=O [mGpTx1] (H-DCLGAFRKCIPDNDKCCRPNLVCSRLHRWCKYVF-NH2; disulfide 2-17, 9-23, 16-30)
IC50 (rKv4.2 D284K; SEM): 663 ± 179 nM | QTc interval (ICR mice [1]; 0.3 mg kg-1, tail vein, control 0.07 ± 0.01 s, n = 8, p < 0.001): 0.12 ± 0.01 s | RR interval (ICR mice [1]; 0.3 mg kg-1, tail vein, control 0.12 ± 0.01 s, n = 8, p = 0.0088): 0.14 ± 0.01 s | T-wave amplitude (ICR mice [1]; 0.3 mg kg-1, tail vein, control 0.20 ± 0.03 mV, n = 8, p = 0.0138): 0.09 ± 0.02 mV | heart rate (ICR mice [1]; 0.3 mg kg-1, tail vein, control 508.4 ± 24.5, n = 8, p = 0.0045): 451.6 ± 27.1 | effect on the ECGs (ICR mice [1]; 0.3 mg kg-1, tail vein, n = 8): notably altered the shape of the ECGs | effect on AP amplitude [4]: no significant changes | effect on resting membrane potential (RMP) [4]: no significant changes | APD at 90% repolarization (APD 90) ([4]; before treatment 51.7 ± 14.6 ms, n = 5, p = 0.0289): 137.1 ± 36.3 ms | effect on action potential duration (APD) [4]: significantly prolonged
